Test results from paper PMC11784013, “Potassium molybdate blocks APN-dependent coronavirus entry by degrading receptor via PIK3C3-mediated autophagy” (Journal of Virology, 2024).

Legend:
TGEV Miller = assay: TGEV infection of porcine intestinal organoids (monolayer, apical-out); assay type: cell-based, transmissible gastroenteritis virus; details: RT-qPCR, TCID50, western blot
Procedure: Fig 2 PM restricts TGEV and PRCV infection in porcine intestinal organoids. (A) Intestinal organoids cultured in 96-well plate were incubated with different concentrations of PM for 24 h, which was tested by Cell Counting Kit 8. (B and C) The intestinal organoids monolayer was treated with indicated PM and infected with TGEV Miller (0.1 MOI) for 24 h, which was measured by IFA (B), scale bar: 50 µm, RT-qPCR, TCID50, and western blot (C). (D) Apical-out intestinal organoids were treated with indicated PM and infected TGEV Miller (1 MOI) for 48 h, which was determined by RT-qPCR, TCID50, and western blot. (E and F) The intestinal organoids monolayer was treated with different concentrations of PM and infected with PRCV for 24 h, which was determined by IFA (E), scale bar: 50 µm, RT-qPCR, TCID50, and western blot (F). (G) Apical-out intestinal organoids were treated with indicated PM and infected PRCV (1 MOI) for 48 h, which was detected by RT-qPCR, TCID50, and western blot. Results are presented as mean ± SD of data from three independent experiments. **, P ≤ 0.01; ***, P ≤ 0.001.
Porcine 3D ileum organoids coated with Matrigel for 1 week were dissociated by incubation in 5 mM cold EDTA buffer on a rotating platform for 1 h at 4°C. […]

[1] = tested on: autophagosomes and autolysosomes; assay: Autophagic flux (RFP-EGFP-LC3B sensor) and transmission electron microscopy in ST cells; assay type: cell-based, swine
Procedure: Fig 6 PM degrades APN by autophagy-lysosome pathway. (A) ST cells were treated with PM (10 mM) and infected with TGEV (0.1 MOI) in the presence and absence of MG132 (20 µM), 3-MA (20 mM), and Z-VAD-FMK (20 µM) for 16 h. The APN expression and TGEV N were detected by western blot. (B) ST cells were treated with PM (10 mM) at 2, 4, 8, and 16 h, autophagy markers P62 and LC3, and APN were measured by western blot. (C) ST cells were transfected with RFP-EGFP-LC3B for 12 h and then treated with PM (10 mM) or H2O for 36 h. The fluorescence of GFP and RFP was detected by confocal microscopy, scale bar: 5 µm. (D) Quantification of autophagosomes (Merge) and autolysosomes (RFP) from C using Image J software. (E) ST cells were treated with PM or H2O for 24 h. The autophagosomes (yellow arrow) and autolysosomes (asterisk) were detected by transmission electron microscope, scale bar: 2 µm. (F) The number of autophagosomes (yellow arrow) and autolysosomes (asterisk) was quantified. All western blot results were calculated by Image J. Results are presented as mean ± SD of data from three independent experiments. ***, P ≤ 0.001.

Structure (SMILES): [K+].[K+].[O]=[Mo](=[O])([O-])[O-] [PM, potassium molybdate]
- TGEV infection in intestinal organoid monolayer (TGEV Miller; TGEV Miller 0.1 MOI, 24 h, IFA, dose-dependent): significantly inhibited TGEV infection
- TGEV infection in apical-out organoids (TGEV Miller; TGEV Miller 1 MOI, 48 h): markedly inhibited TGEV infection
- autophagic flux (RFP-EGFP-LC3B sensor) ([1]; PM 10 mM, 36 h, confocal microscopy): increased RFP signals (autolysosomes) and merge signals (autophagosomes)
- autophagosomes and autolysosomes by transmission electron microscopy ([1]; PM vs H2O, 24 h): formed more autophagosomes
